Where two headings read alike, the source gives them in different places. Square brackets hold non-standard residues; d marks the D form. Peptide text beside a SMILES is read from it. * marks the point of attachment. Sta = CC(C)C[C@H](N)[C@@H](O)CC(=O)O; Isovaleryl = CC(C)CC(=O)*
Assays:
P. falciparum = conditions: cited from earlier work
plasmepsin II = plasmepsin II (Plasmodium falciparum, UniProt P46925); assay: biochemical; conditions: FRET, pH 5, 37° C., 40 min, substrate 1 μM, read-out: IC50 (nM) on plasmepsin II
Chain of plasmepsin II (P46925 125-453): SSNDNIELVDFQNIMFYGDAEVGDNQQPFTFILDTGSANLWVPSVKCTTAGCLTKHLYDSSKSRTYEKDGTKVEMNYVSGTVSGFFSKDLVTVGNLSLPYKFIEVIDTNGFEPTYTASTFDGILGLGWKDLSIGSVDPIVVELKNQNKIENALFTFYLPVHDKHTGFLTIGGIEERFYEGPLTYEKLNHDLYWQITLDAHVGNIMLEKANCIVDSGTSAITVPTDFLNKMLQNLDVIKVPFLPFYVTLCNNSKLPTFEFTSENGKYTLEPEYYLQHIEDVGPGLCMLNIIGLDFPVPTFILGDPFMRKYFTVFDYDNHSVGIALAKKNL

IC50 (plasmepsin II; Additional Examples table) [nM]	SMILES	further results
	CC(C)CC(=O)N[C@H](C(=O)N[C@H](C(=O)N[C@@H](CC(C)C)[C@@H](O)CC(=O)N[C@@H](C)C(=O)N[C@@H](CC(C)C)[C@@H](O)CC(=O)O)C(C)C)C(C)C [Pepstatin] (Isovaleryl-VV[Sta]A[Sta]-OH)	growth of P. falciparum in red blood cells in vitro (P. falciparum): inhibits the growth
75	CCCCCc1ccc(C(=O)N(Cc2ccc(-c3ccc4c(c3)OCO4)cc2)C2CCN(CC3=CCCCC3)CC2)cc1 [Example 57, N-(4-Benzo[1,3]dioxol-5-yl-benzyl)-N-(1-cyclohex-1-enylmethyl-piperidin-4-yl)-4-pentyl-benzamide]	
	CCCCCc1ccc(C(=O)N(Cc2ccc(OCc3ccccc3)c(OC)c2)C2CCN(Cc3ccccc3)CC2)cc1 [Example 22]	IC50 (plasmepsin II; […]): 793 nM
89	CCCCCc1ccc(C(=O)N(Cc2ccc(-c3cccnc3)cc2)C2CCN(CC3=CCCCC3)CC2)cc1 [Example 61, N-(1-Cyclohex-1-enylmethyl-piperidin-4-yl)-4-pentyl-N-(4-pyridin-3-yl-benzyl)benzamide]	

— patent publication US20040102431A1, “Substituted amino-aza-cycloalkanes useful against malaria” (priority 2000, published 2004)
